Experimental data: paper PMC10584170, “Machine learning-based phenotypic imaging to characterise the targetable biology of Plasmodium falciparum male gametocytes for the development of transmission-blocking antimalarials” (PLOS Pathogens, 2023)
Read-outs that look alike come from different tables or passages of the source.

Columns and labels:
[1] = test system: P. falciparum male gametocytes; assay: P. falciparum Dual Gamete Formation Assay (PfDGFA), male readout (exflagellation); format: cell-based, Plasmodium falciparum NF54; details: for Selectivity Ratio M: HepG2 Tox50 versus male IC50; for inhibition at 2 µM: 24h preincubation with gametocytes
Summary of the method: (§1)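 NF54 mature gametocytes (d14), cpd 24 h 37°C hypoxic gas; trigger: xanthurenic acid ookinete medium + Cy3 anti-Pfs25, 4°C 4 min → 28°C 4 min. Male: exflagellation centres, brightfield x6. Female: Pfs25+ gametes, fluorescence, +24 h 28°C dark.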

[2] = test system: HepG2 cells; assay: HepG2 cytotoxicity counter-screen; details: for Mean TOX: mean of the HepG2 TOX50 values; for Tox50: cytotoxic activity against HepG2 cells
[3] = test system: HepG2 cells; details: cited from earlier work
[4] = test system: P. falciparum female gametocytes; assay: P. falciparum Dual Gamete Formation Assay (PfDGFA), female readout (Pfs25-positive female gametes); format: cell-based, Plasmodium falciparum NF54; details: for Selectivity ratio F: HepG2 Tox50 versus female IC50; for inhibition at 2 µM: 24h preincubation with gametocytes
Summary of the method: as §1

[5] = test system: P. berghei ookinete development; assay: P. berghei Ookinete Development Assay (PbODA); format: cell-based, Plasmodium berghei; details: Mean TOX HepG2 over Pb ODA value; GREEN = >10-fold; RED = <10-fold
Excerpt: (§2) Fig 1 The activity of TCAMS compound identified in the Pf DGFA screen. (A) 85 molecules were confirmed active in the Pf DGFA. 58 were previously identified in one or more transmission-blocking screens. […] No molecule was identified with >4.7-fold greater activity against female gametocytes. Abbreviations (IC50 = concentration giving 50% inhibition, PbODA = P. berghei Ookinete Development Assay, PfDGFA = P. falciparum Dual Gamete Formation Assay, PfFGAA = P. falciparum Female Gametocyte Activation Assay, PfGCT = P. falciparum Gametocyte Viability ATP Assay).

[6] = test system: P. falciparum female gametocytes; design: method as in Miguel-Blanco et al 2017; details: ref Miguel-Blanco et al 2017; read-out: Pf female gametogenesis FGAA IC50; cited from earlier work
[7] = test system: P. falciparum female gametocytes; assay: P. falciparum Female Gametocyte Activation Assay (PfFGAA); format: cell-based, Plasmodium falciparum
Excerpt: as §2

[8] = this study, read-out: Pf DGFA IC50 MALE
[9] = this study, read-out: Pf DGFA IC50 FEM
[10] = Mean TOX HepG2 over FGAA IC50, GREEN = >10-fold, RED = <10-fold
[11] = Mean TOX HepG2 over DGFA IC50 MALE, GREEN = >10-fold, RED = <10-fold
[12] = Plasmodium falciparum, PfDGFA, 24 h incubation with gametocytes before induction, exflagellation readout, read-out: Male IC50
[13] = HepG2 value reported with the FGAA screen, ref Miguel-Blanco et al 2017
[14] = Mean TOX HepG2 over DGFA IC50 FEM, GREEN = >10-fold, RED = <10-fold
[15] = Plasmodium falciparum, PfDGFA, 24 h incubation with gametocytes before induction, female gamete readout, read-out: Female IC50

Br.CC[C@H]1CN2CCc3cc(OC)c(OC)cc3[C@@H]2C[C@@H]1C[C@H]1NCCc2c1cc(OC)c(O)c2I [TC07]
Cytotox ratio Pf Male [1]: 7.0
IC50 [1, 8]: 840 nM
Mean TOX [2]: 5.89 µM
ODA TOX50 HepG2 [3]: 5.433 µM
Cytotox ratio Pf Female [4]: 20.3
IC50 [4, 9]: 290 nM
Cytotox ratio Pb Ookinete [5]: 8736.5

CCC1=C[C@@H]2CN(C1)Cc1c([nH]c3ccccc13)[C@@](C(=O)OC)(c1cc3c(cc1OC)N(C)[C@H]1[C@@](O)(C(=O)OC)[C@H](O)[C@]4(CC)C=CCN5CC[C@]31[C@@H]54)C2.O=S(=O)(O)O [TC21]
Cytotox ratio Pf Male [1]: 4844.5
IC50 [1, 8]: 10 nM
Mean TOX [2]: 48.44 µM
ODA TOX50 HepG2 [3]: 41.2098 µM
Cytotox ratio Pf Female [4]: 4.8
Cytotox ratio Pb Ookinete [5]: 80190.9

COc1ccc(Nc2ncc(C#N)c(Nc3ccccc3C(N)=O)n2)cc1N1CCN(C)CC1.Cl [TC22]
Cytotox ratio Pf Male [1]: 89.5
IC50 [1, 8]: 100 nM
Mean TOX [2]: 8.95 µM
ODA TOX50 HepG2 [3]: 8.318 µM
Cytotox ratio Pf Female [4]: 0.9
Cytotox ratio Pb Ookinete [5]: 308001.0

CN1CCN(c2ccc(Nc3ncc(Cl)c(Nc4cccnc4C(N)=O)n3)cc2)CC1.Cl [TC24]
Cytotox ratio Pf Male [1]: 11.9
IC50 [1, 8]: 460 nM
Mean TOX [2]: 5.46 µM
ODA TOX50 HepG2 [3]: 4.624 µM
Cytotox ratio Pf Female [4]: 1.0
IC50 [4, 9]: 5470 nM
Cytotox ratio Pb Ookinete [5]: 13093.5

COc1ccc(-c2cnc(N)c(-c3ccc(C(N)=O)cc3)c2)cc1OC [TC26]
Cytotox ratio Pf Male [1]: 205.6
IC50 [1, 8]: 280 nM
Mean TOX [2]: 57.57 µM
ODA TOX50 HepG2 [3]: 100 µM
Cytotox ratio Pf Female [4]: 5.8
Cytotox ratio Pb Ookinete [5]: 82067.7

COc1cccc(C23NC(=Nc4nc5ccccc5[nH]4)NC2(c2cccc(OC)c2)NC(=Nc2nc4ccccc4[nH]2)N3)c1 (stereo not shown) [TC54]
Cytotox ratio Pf Male [1]: 19.8
IC50 [1, 8]: 1850 nM
Mean TOX [2]: 36.56 µM
IC50 [6]: 90 nM
FGAA TOX50 HepG2 [3]: 40.74 µM
Cytotox ratio Pf Female [4]: 28.1
IC50 [4, 9]: 1300 nM
Cytotox ratio Pf FGAA [7, 10]: 406.2

COc1ccc2nc(N=C3NC4(c5ccccc5)NC(=Nc5nc6ccc(OC)cc6[nH]5)NC4(c4ccccc4)N3)[nH]c2c1.O=C(O)C(F)(F)F (stereo not shown) [TC55]
Cytotox ratio Pf Male [1]: 41.5
IC50 [1, 8]: 1160 nM
Mean TOX [2]: 48.12 µM
IC50 [6]: 120 nM
FGAA TOX50 HepG2 [3]: 62.72 µM
Cytotox ratio Pf Female [4]: 8.2
IC50 [4, 9]: 5840 nM
Cytotox ratio Pf FGAA [7, 10]: 401.0

c1ccc(-c2nc(Nc3nc4ccccc4[nH]3)[nH]c2-c2ccccc2)cc1 [TC56]
Cytotox ratio Pf Male [1]: 14.3
IC50 [1, 8]: 950 nM
Mean TOX [2]: 13.60 µM
IC50 [6]: 580 nM
FGAA TOX50 HepG2 [3]: 10.98 µM
Cytotox ratio Pf Female [4]: 13.3
IC50 [4, 9]: 1020 nM
Cytotox ratio Pf FGAA [7, 10]: 23.4

CCN(CC)CCN(Cc1ccc(-c2ccc(C(F)(F)F)cc2)cc1)C(=O)Cn1cc(Cc2cnn(C)c2)c(=O)nc1/C=C/c1ccc(F)cc1.O=C(O)C(O)C(O)C(=O)O [TC64]
Cytotox ratio Pf Male [1]: 17.8
IC50 [1, 8]: 850 nM
Mean TOX [2]: 15.09 µM
IC50 [6]: 1210 nM
FGAA TOX50 HepG2 [3]: 13.81 µM
Cytotox ratio Pf Female [4]: 2.1
IC50 [4, 9]: 7160 nM
Cytotox ratio Pf FGAA [7, 10]: 12.5

FC(F)(F)c1ccc2[nH]c(-c3ccc(-c4cccc(CNCCN5CCNCC5)c4)cc3)nc2c1.O=C(O)C(F)(F)F [TC77]
Cytotox ratio Pf Male [1]: 10.0
IC50 [1, 8]: 1640 nM
Mean TOX [2]: 16.43 µM
IC50 [6]: 1710 nM
FGAA TOX50 HepG2 [3]: 12.31 µM
Cytotox ratio Pf Female [4]: 3.2
IC50 [4, 9]: 5150 nM
Cytotox ratio Pf FGAA [7, 10]: 9.6

CC(Nc1cc(-c2ccccn2)nc(-c2ccccn2)n1)c1ccccc1 (stereo not shown) [TCMDC-125420]
Selectivity Ratio M [1]: 3.89
Cytotox ratio Pf Male [1, 11]: 3.6
inhibition at 2 µM ([1]; Plasmodium falciparum, PfDGFA at 2µM, average of replicates, read-out: Average inhibition male (%)): 78.7%
inhibition at 2 µM ([1]; Plasmodium falciparum, PfDGFA at 2µM, replicate R1, read-out: % inhibition male (individual replicates) R1): 74.1%
inhibition at 2 µM ([1]; Plasmodium falciparum, PfDGFA at 2µM, replicate R2, read-out: % inhibition male (individual replicates) R2): 77.3%
inhibition at 2 µM ([1]; Plasmodium falciparum, PfDGFA at 2µM, replicate R4, read-out: % inhibition male (individual replicates) R4): 84.5%
IC50 [1, 12]: 1900 nM
HitlevelM ([1]; number of replicates with >50% inhibition in the male readout, 2µM): 3
Tox50 [2]: 7.4 µM
Mean TOX [2]: 6.79 µM
IC50 [6]: 210 nM
FGAA TOX50 HepG2 [3, 13]: 6.18 µM
Selectivity ratio F [4]: 10.4
Cytotox ratio Pf Female [4, 14]: 9.6
inhibition at 2 µM ([4]; Plasmodium falciparum, PfDGFA at 2µM, average of replicates, read-out: Average inhibition female (%)): 56%
inhibition at 2 µM ([4]; Plasmodium falciparum, PfDGFA at 2µM, replicate R1, read-out: % inhibition female (individual replicates) R1): 55.2%
inhibition at 2 µM ([4]; Plasmodium falciparum, PfDGFA at 2µM, replicate R2, read-out: % inhibition female (individual replicates) R2): 57.8%
inhibition at 2 µM ([4]; Plasmodium falciparum, PfDGFA at 2µM, replicate R3, read-out: % inhibition female (individual replicates) R3): 63%
inhibition at 2 µM ([4]; Plasmodium falciparum, PfDGFA at 2µM, replicate R4, read-out: % inhibition female (individual replicates) R4): 48%
IC50 [4, 15]: 710 nM
HitlevelF ([4]; number of replicates with >50% inhibition in the female readout, 2µM): 3
Cytotox ratio Pf FGAA ([7]; human): 29.4

CN(C)CCOc1ccc(NC(=O)NC(C)(C)c2nc(-c3ccc(Cl)c(O)c3)c(-c3ccncc3)[nH]2)cc1.Cl [TCMDC-140744]
Selectivity Ratio M [1]: 89.77
Cytotox ratio Pf Male [1, 11]: 65.9
inhibition at 2 µM ([1]; Plasmodium falciparum, 2µM, average of replicates, read-out: Average inhibition male (%)): 97.8%
inhibition at 2 µM ([1]; Plasmodium falciparum, 2µM, replicate R1, read-out: % inhibition male (individual replicates) R1): 98.2%
inhibition at 2 µM ([1]; Plasmodium falciparum, 2µM, replicate R2, read-out: % inhibition male (individual replicates) R2): 101%
inhibition at 2 µM ([1]; Plasmodium falciparum, 2µM, replicate R3, read-out: % inhibition male (individual replicates) R3): 95.7%
inhibition at 2 µM ([1]; Plasmodium falciparum, 2µM, replicate R4, read-out: % inhibition male (individual replicates) R4): 96.3%
IC50 [1, 12]: 330 nM
Tox50 [2]: 29.19 µM
Mean TOX [2]: 21.75 µM
IC50 [6]: 730 nM
FGAA TOX50 HepG2 [3, 13]: 14.3 µM
Selectivity ratio F [4]: 76.37
Cytotox ratio Pf Female [4, 14]: 57.2
inhibition at 2 µM ([4]; Plasmodium falciparum, 2µM, average of replicates, read-out: Average inhibition female (%)): 95.5%
inhibition at 2 µM ([4]; Plasmodium falciparum, 2µM, replicate R1, read-out: % inhibition female (individual replicates) R1): 91.1%
inhibition at 2 µM ([4]; Plasmodium falciparum, 2µM, replicate R2, read-out: % inhibition female (individual replicates) R2): 96.2%
inhibition at 2 µM ([4]; Plasmodium falciparum, 2µM, replicate R3, read-out: % inhibition female (individual replicates) R3): 101%
inhibition at 2 µM ([4]; Plasmodium falciparum, 2µM, replicate R4, read-out: % inhibition female (individual replicates) R4): 93.9%
IC50 [4, 15]: 380 nM
Cytotox ratio Pf FGAA ([7]; human): 29.8
